# Earlier results in PubChem BioAssay AID1259409 (Chemical Carcinogenesis Research Information System (CCRIS), 2018).
# Tested on: rodent chemically induced tumor inhibition, incidence and multiplicity
# Assay: CCRIS tumor inhibitor studies
# Conditions: Route [Inhibitor]: DERMAL, Species: MOUSE, Target Tissue: Type of Lesion: SKIN: PAPILLOMA, Promoter: 12-O-TETRADECANOYLPHORBOL-13-ACETATE, 16561-29-8
smiles,measurement,setting,value
O=c1cc(-c2ccccc2)oc2c1ccc1ccccc12,"tumour outcome (control, treated, inhibition, significance)","Carcinogen: 7,14-DIMETHYLBENZO[A,H]ANTHRACENE, 35335-07-0, Dose [Inhibitor]: 0, 370 NMOL IN 0.2 ML ACETONE APPLIED 5 MIN PRIOR TO CARCINOGEN (STUDY DURATION: 21 WK), Strain/Sex: SENCAR/FEMALE, Dose [Carcinogen]: 47.5 NMOL IN 0.2 ML ACETONE ONCE","97%, 96%, 1%, not calculated"
same,"tumour outcome (control, treated, inhibition, significance)","Carcinogen: 7,14-DIMETHYLBENZO[A,H]ANTHRACENE, 35335-07-0, Dose [Inhibitor]: 0, 3700 NMOL IN 0.2 ML ACETONE APPLIED 5 MIN PRIOR TO CARCINOGEN (STUDY DURATION: 21 WK), Strain/Sex: SENCAR/FEMALE, Dose [Carcinogen]: 47.5 NMOL IN 0.2 ML ACETONE ONCE","97%, 97%, 0%"
same,"tumour outcome (control, treated, inhibition, significance)","Carcinogen: 7-(BROMOMETHYL)BENZ[A]ANTHRACENE, 24961-39-3, Dose [Inhibitor]: 100 UG IN 0.2 ML ACETONE ONCE 5 MIN BEFORE CARCINOGEN TREATMENT (STUDY DURATION: 31 WK), Strain/Sex: CD-1/FEMALE, Dose [Carcinogen]: 3125 NMOL IN 0.2 ML ACETONE ONCE","55%, 30%, 45%, not calculated"
same,"tumour outcome (control, treated, inhibition, significance)","Carcinogen: 7-BROMOMETHYL-12-METHYLBENZ[A]ANTHRACENE, 16238-56-5, Dose [Inhibitor]: 100 UG IN 0.2 ML ACETONE ONCE 5 MIN BEFORE CARCINOGEN TREATMENT (STUDY DURATION: 31 WK), Strain/Sex: CD-1/FEMALE, Dose [Carcinogen]: 600 NMOL IN 0.2 ML ACETONE ONCE","96%, 72%, 25%, not calculated"
same,"tumour outcome (control, treated, inhibition, significance)","Carcinogen: 7-FORMYL-12-METHYLBENZ[A]ANTHRACENE, 13345-61-4, Dose [Inhibitor]: 100 UG IN 0.2 ML ACETONE ONCE 5 MIN BEFORE CARCINOGEN TREATMENT (STUDY DURATION: 31 WK), Strain/Sex: CD-1/FEMALE, Dose [Carcinogen]: 740 NMOL IN 0.2 ML ACETONE ONCE","84%, 63%, 25%, not calculated"
same,"tumour outcome (control, treated, inhibition, significance)","Carcinogen: 7-HYDROXYMETHYL-12-METHYLBENZ[A]ANTHRACENE, 568-75-2, Dose [Inhibitor]: 100 UG IN 0.2 ML ACETONE ONCE 5 MIN BEFORE CARCINOGEN TREATMENT (STUDY DURATION: 31 WK), Strain/Sex: CD-1/FEMALE, Dose [Carcinogen]: 400 NMOL IN 0.2 ML ACETONE ONCE","48%, 52%, -8%, not calculated"
same,"tumour outcome (control, treated, inhibition, significance)","Carcinogen: 12-BROMOMETHYL-7-METHYLBENZ[A]ANTHRACENE, 59230-81-8, Dose [Inhibitor]: 100 UG IN 0.2 ML ACETONE ONCE 5 MIN BEFORE CARCINOGEN TREATMENT (STUDY DURATION: 31 WK), Strain/Sex: CD-1/FEMALE, Dose [Carcinogen]: 600 NMOL IN 0.2 ML ACETONE ONCE","87%, 74%, 15%, not calculated"
same,"tumour outcome (control, treated, inhibition, significance)","Carcinogen: BENZO[A]PYRENE, 50-32-8, Dose [Inhibitor]: 10 UG IN 0.2 ML ACETONE ONCE 5 MINUTES BEFORE CARCINOGEN TREATMENT (STUDY DURATION: 31 WK), Strain/Sex: CD-1/FEMALE, Dose [Carcinogen]: 400 NMOL IN 0.2 ML ACETONE ONCE","90%, 90%, 0%, not calculated"
same,"tumour outcome (control, treated, inhibition, significance)","Carcinogen: BENZO[A]PYRENE, 50-32-8, Dose [Inhibitor]: 100 UG IN 0.2 ML ACETONE ONCE 5 MINUTES BEFORE CARCINOGEN TREATMENT (STUDY DURATION: 31 WK), Strain/Sex: CD-1/FEMALE, Dose [Carcinogen]: 400 NMOL IN 0.2 ML ACETONE ONCE","90%, 80%, 11%, not calculated"
same,"tumour outcome (control, treated, inhibition, significance)","Carcinogen: BENZO[A]PYRENE, 50-32-8, Dose [Inhibitor]: 200 UG IN 0.2 ML ACETONE ONCE 5 MINUTES BEFORE CARCINOGEN TREATMENT (STUDY DURATION: 31 WK), Strain/Sex: CD-1/FEMALE, Dose [Carcinogen]: 400 NMOL IN 0.2 ML ACETONE ONCE","90%, 77%, 14%, not calculated"
same,"tumour outcome (control, treated, inhibition, significance)","Carcinogen: DIBENZO[A,H]ANTHRACENE, 53-70-3, Dose [Inhibitor]: 0, 370 NMOL IN 0.2 ML ACETONE APPLIED 5 MIN PRIOR TO CARCINOGEN (STUDY DURATION: 21 WK), Strain/Sex: SENCAR/FEMALE, Dose [Carcinogen]: 200 NMOL IN 0.2 ML ACETONE ONCE","100%, 77%, 23%, not calculated"
same,"tumour outcome (control, treated, inhibition, significance)","Carcinogen: DIBENZO[A,H]ANTHRACENE, 53-70-3, Dose [Inhibitor]: 0, 3700 NMOL IN 0.2 ML ACETONE APPLIED 5 MIN PRIOR TO CARCINOGEN (STUDY DURATION: 21 WK), Strain/Sex: SENCAR/FEMALE, Dose [Carcinogen]: 200 NMOL IN 0.2 ML ACETONE ONCE","100%, 80%, 20%, not calculated"
